Data on two molecules can be found in EP0687258B1, “SUBSTITUTED IMINOACETONITRILES WITH MYOCARDIAL PROTECTIVE EFFECT” (HOECHST AKTIENGESELLSCHAFT, priority 1993, dated 1994).

For the assay, the system named is isoliert perfundierten Rattenherzens. As to the kind of experiment: Isolated perfused rat heart (Langendorff), anoxia/reoxygenation, release of lactate dehydrogenase into the perfusate. The conditions noted are these: for Freisetzung von Laktatdehydrogenase (großer initialer Enzymverlust) während der Reoxygenationsphase: closed circles, n = 4 hearts; for Enzymverlust nach anschließendem Auswaschen der Substanz: open circles. Details: species or system Wistarratten. As for the experimental part:
Die pharmakologische Wirkung der erfindungsgemäßen Verbindungen der allgemeinen Formel I sowie des N-Morpholino-iminoacetonitrils wurden am Modell des isoliert perfundierten Rattenherzens untersucht.
Dazu wurden Herzen von 200 - 250 g schweren Wistarratten in einer temperaturkontrollierten Kammer (37°C) an ein Langendorff-Perfusionssystem gehängt. Die Kammer war während normoxischer Perfusionen mit Luft, während anoxischer mit 95 % N2 plus 5 % CO2 gefüllt. […] Für eine initiale Stabilisierungsperiode von 30 min wurden die Herzen mit einem oxygenierten salinen Medium perfundiert (Zusammensetzung in mM: 140.0 NaCl, 24.0 NaHCO3, 2.7 KCl, 0.4 NaH2PO4, 1.0 MgCl2, 1.8 CaCl2, 5.0 Glucose, äquilibriert mit 95 % O2 und 5 % CO2, pH 7.4). Für anoxische Perfusionen wurde diese initiale normoxische Stabilisierungsperiode gefolgt von 60 min Perfusion, mit einem Fluß von 5 ml/min von anoxoischem Medium (Zusammensetzung wie zuvor, aber ohne Glucose und äquilibriert mit 95 % N2 und 5 % CO2, pH 7.4). Die anoxisch perfundierten Herzen wurden nachfolgend durch Zurückschalten auf die initialen normoxischen Perfusionsbedingungen reoxygeniert.
In Versuchen mit den Testsubstanzen wurden diese dem anoxischen Perfusat während der letzten 15 min zugefügt. Die ersten 60 min der Reoxygenationsphase wurden ebenfalls in Gegenwart der Testsubstanzen durchgeführt. Danach wurde ohne diese Substanzen die normoxische Perfusion für weitere 45 min fortgesetzt.
Die Herzschädigung wurde charakterisiert durch die Freisetzung des zytosolischen Enzyms Laktatdehydrogenase (LDH) in das Perfusat. Während der Herzperfusion wurden 1-minütige Sammelproben des Effluats gesammelt. Die Aktivität von LDH wurde auch in Homogenaten ganzer Rattenherzen gemessen (präpariert in 100 mM Phosphatpuffer, pH 7.4, mit 1 % Triton X-100). […] Der Enzymverlust wurde in Prozenten der initialen Gesamtgewebsaktivitäten angegeben.

Regarding `CC(=O)C(C)=NO` [Butandionmonoxim, reference compound], the “Freisetzung von Laktatdehydrogenase (großer initialer Enzymverlust) während der Reoxygenationsphase” value (reoxygenation after 60 min anoxia in presence of 20 mM test substance, Abbildung 1 C) is listed as “weitgehend unterdrückt”. Further, under “washout after reoxygenation in presence of 20 mM test substance, Abbildung 1 C”, the “Enzymverlust nach anschließendem Auswaschen der Substanz” value was “geringen initialen Steigerung des Enzymverlustes”.

Take `N#CC=NN1CCOCC1` [N-Morpholino-iminoacetonitril]: the “Wirksamkeit im Vergleich zu BDM” value (relative to BDM (10 mM vs 20 mM)) is given as “etwa doppelt so hoch wie die von BDM”. For the same molecule, where the note is “reoxygenation after 60 min anoxia in presence of 10 mM test substance, Abbildung 1 B”, the “Freisetzung von Laktatdehydrogenase (großer initialer Enzymverlust) während der Reoxygenationsphase” value is reported as “weitgehend unterdrückt”. In addition, the “reoxygenationsbedingte Myokardschädigung” value (summary of the results shown) is “deutlich reduziert”. The “Enzymverlust nach anschließendem Auswaschen der Substanz” value (washout after reoxygenation in presence of 10 mM test substance, Abbildung 1 B) is given as “keiner weiteren Steigerung des Enzymverlusts”.
